Data reported in patent US20090264415A2 (priority 2004, published 2009).

System: peripheral blood mononuclear cells (PBMC) stimulated with allogeneic PBMC or EBV-transformed human B cells (RPMI1788)
Assay: Mixed lymphocyte reaction (MLR) assay
Format: cell-based
Conditions: Homo sapiens, RPMI-1788; MLR assay of example 319; read-out: MLR IC50
Outline: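 Responder PBMC co-cultured in triplicate with 30 Gy-irradiated allogeneic PBMC or RPMI1788 B cells plus compound (DMSO stock 10 mM, diluted in medium). After 5 days at 37° C, 1 μCi [3H]-thymidine added for 16 h more; incorporated cpm counted and proliferation inhibition calculated.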

Compound | IC50
Cc1ccc(-c2ccc3nc(N)nc(N4CCN(C(=O)COc5ccc(Cl)cc5)CC4)c3n2)cc1 [Example 445, 2-amino-4-[4-(4-chlorophenoxyacetyl)piperazin-1-yl]-6-(4-methylphenyl)pyrido-[3,2-d]pyrimidine] | 0.029 µM
CC(=O)c1ccc(-c2ccc3nc(N)nc(N4CCN(C(=O)COc5ccc(Cl)cc5)CC4)c3n2)cc1 [Example 446, 2-amino-4-[4-(4-chlorophenoxyacetyl)piperazin-1-yl]-6-(4-acetylphenyl)pyrido-[3,2-d]pyrimidine] | 0.011 µM
NCc1ccc(-c2ccc3nc(N)nc(N4CCN(C(=O)COc5ccc(Cl)cc5)CC4)c3n2)cc1 [Example 447, 2-amino-4-[4-(4-chlorophenoxyacetyl)piperazin-1-yl]-6-[4-(aminomethyl)phenyl]pyrido-[3,2-d]pyrimidine] | 0.4 µM
Nc1nc(N2CCN(C(=O)COc3ccc(Cl)cc3)CC2)c2nc(-c3ccc(C(=O)NC4CC4)cc3)ccc2n1 [Example 448, 2-amino-4-[4-(4-chlorophenoxyacetyl)piperazin-1-yl]-6-[4-(cyclopropylaminocarbonyl)phenyl]-pyrido-[3,2-d]pyrimidine] | 0.015 µM
CC(=O)Nc1ccc(-c2ccc3nc(N)nc(N4CCN(C(=O)COc5ccc(Cl)cc5)CC4)c3n2)cc1 [Example 449, 2-amino-4-[4-(4-chlorophenoxyacetyl)piperazin-1-yl]-6-[4-(acetamido)phenyl]-pyrido-[3,2-d]pyrimidine] | 0.039 µM
CCNC(=O)N1CCN(c2nc(N)nc3ccc(-c4ccc(F)cc4)nc23)CC1 [Example 450, 2-amino-4-[4-(N-ethylcarbamoyl)-piperazin-1-yl]-6-(4-fluorophenyl)-pyrido[3,2-c]pyrimidine] | 0.5 µM
CCCCNC(=O)N1CCN(c2nc(N)nc3ccc(-c4ccc(F)cc4)nc23)CC1 [Example 451, 2-amino-4-[4-(N-butylcarbamoyl)-piperazin-1-yl]-6-(4-fluorophenyl)-pyrido[3,2-d]pyrimidine] | 0.2 µM
CNC(=O)N1CCN(c2nc(N)nc3ccc(-c4ccc(F)cc4)nc23)CC1 [Example 452, 2-amino-4-[4-(N-methylcarbamoyl)-piperazin-1-yl]-6-(4-fluorophenyl)-pyrido[3,2-d]pyrimidine] | 0.4 µM
Nc1nc(N2CCN(C(=O)NC34CC5CC(CC(C5)C3)C4)CC2)c2nc(-c3ccc(F)cc3)ccc2n1 [Example 453, 2-amino-4-{4-[N-(1-adamantylcarbamoyl)]-piperazin-1-yl}-6-(4-fluorophenyl)-pyrido[3,2-d]pyrimidine] | 4 µM
Nc1nc(N2CCN(C(=O)NC3CCCC3)CC2)c2nc(-c3ccc(F)cc3)ccc2n1 [Example 454, 2-amino-4-[4-(N-cyclopentylcarbamoyl)-piperazin-1-yl]-6-(4-fluorophenyl)-pyrido[3,2-d]pyrimidine] | 0.4 µM
Nc1nc(N2CCN(C(=O)Nc3ccc(Cl)cc3)CC2)c2nc(-c3ccc(F)cc3)ccc2n1 [Example 455, 2-amino-4-[4-[N-(4-chlorophenyl)carbamoyl]-piperazin-1-yl]-6-(4-fluorophenyl)-pyrido[3,2-d]pyrimidine] | 0.07 µM
CC(C)(C)OC(=O)N1CCCC(Nc2nc(N)nc3ccc(-c4ccc(F)cc4)nc23)C1 (centres unmarked) [Example 457, 2-amino-4-[1-(tert-butoxycarbonyl)piperid-3-ylamino]-6-(4-fluorophenyl)-pyrido[3,2-d]pyrimidine] | 6.6 µM
Nc1nc(N2CCN(C(=O)OCc3ccccc3)CC2)c2nc(-c3ccc(F)cc3)ccc2n1 [Example 458, 2-amino-4-[4-(benzyloxycarbonyl)-piperazin-1-yl]-6-(4-fluorophenyl)-pyrido[3,2-d]pyrimidine] | 0.7 µM
Nc1nc(N2CCN(CC(=O)NCCc3ccccc3)CC2)c2nc(-c3ccc(F)cc3)ccc2n1 [Example 459, 2-amino-4-[4-[2-(phenyl)ethylcarbamylmethyl]-piperazin-1-yl]-6-(4-fluorophenyl)-pyrido[3,2-f]pyrimidine] | 0.5 µM
CC(C)(C)OC(=O)N1CCC(Nc2nc(N)nc3ccc(-c4ccc(F)cc4)nc23)CC1 [Example 461, 2-amino-4-[1-(tert-butoxycarbonyl)piperid-4-ylamino]-6-(4-fluorophenyl)-pyrido[3,2-d]pyrimidine] | 4 µM
COCC(=O)N1CCN(c2nc(N)nc3ccc(-c4ccc(F)cc4)nc23)CC1 [Example 462, 2-amino-4-[4-(methoxyacetyl)piperazin-1-yl]-6-(4-fluorophenyl)-pyrido[3,2-d]pyrimidine] | 0.4 µM
CCN(CC)C(=O)N1CCN(c2nc(N)nc3ccc(-c4ccc(F)cc4)nc23)CC1 [Example 463, 2-amino-4-[4-(diethylcarbamoyl)piperazin-1-yl]-6-(4-fluorophenyl)-pyrido[3,2-d]pyrimidine] | 0.6 µM
CN(C)C(=O)N1CCN(c2nc(N)nc3ccc(-c4ccc(F)cc4)nc23)CC1 [Example 464, 2-amino-4-[4-(dimethylcarbamoyl)piperazin-1-yl]-6-(4-fluorophenyl)-pyrido[3,2-d]pyrimidine] | 0.8 µM
CC(C)N(C(=O)N1CCN(c2nc(N)nc3ccc(-c4ccc(F)cc4)nc23)CC1)C(C)C [Example 465, 2-amino-4-[4-(diisopropylcarbamoyl)piperazin-1-yl]-6-(4-fluorophenyl)-pyrido[3,2-d]pyrimidine] | 3 µM
Nc1nc(N2CCN(C(=O)N3CCOCC3)CC2)c2nc(-c3ccc(F)cc3)ccc2n1 [Example 466, 2-amino-4-[4-(morpholinocarbonyl)piperazin-1-yl]-6-(4-fluorophenyl)-pyrido[3,2-d]pyrimidine] | 2.5 µM
CC(C)C(C(=O)N1CCN(c2nc(N)nc3ccc(-c4ccc(F)cc4)nc23)CC1)c1ccc(Cl)cc1 (centres unmarked) [Example 467, 2-amino-4-{4-[2-(4-chlorophenyl)-3-methylbutyryl]-piperazin-1-yl}-6-(4-fluorophenyl)-pyrido[3,2-d]pyrimidine] | 4.7 µM
CC(Cl)C(=O)N1CCN(c2nc(N)nc3ccc(-c4ccc(F)cc4)nc23)CC1 (centres unmarked) [Example 468, 2-amino-4-[4-(2-chloropropionyl)piperazin-1-yl]-6-(4-fluorophenyl)-pyrido[3,2-d]pyrimidine] | 3.2 µM
Nc1nc(N2CCN(C(=O)Oc3ccc(Cl)cc3)CC2)c2nc(-c3ccc(F)cc3)ccc2n1 [Example 469, 2-amino-4-[4-(4-chlorophenoxycarbonyl)piperazin-1-yl]-6-(4-fluorophenyl)-pyrido[3,2-d]pyrimidine] | 0.5 µM
CC(C)(Oc1ccc(Cl)cc1)C(=O)N1CCN(c2nc(N)nc3ccc(-c4ccc(F)cc4)nc23)CC1 [Example 472, 2-amino-4-{4-[2-(4-chlorophenoxy)-2-methylpropionyl]-piperazin-1-yl}-6-(4-fluorophenyl)-pyrido[3,2-d]pyrimidine] | > 10 µM
Nc1nc(N2CCN(C(=O)CCOc3ccc(Cl)cc3)CC2)c2nc(-c3ccc(F)cc3)ccc2n1 [Example 473, 2-amino-4-{4-[3-(4-chlorophenoxy)propionyl]-piperazin-1-yl}-6-(4-fluorophenyl)-pyrido[3,2-d]pyrimidine] | 0.5 µM
CC(Oc1ccccc1)C(=O)N1CCN(c2nc(N)nc3ccc(-c4ccc(F)cc4)nc23)CC1 (centres unmarked) [Example 474, 2-amino-4-[4-(2-phenoxypropionyl)piperazin-1-yl]-6-(4-fluorophenyl)-pyrido[3,2-d]pyrimidine] | 1 µM
